From patent US20110152094A1, “Herbicidal compositions comprising flufenacet” (Bayer CropScience AG, priority 2009, published 2011) come the findings set out here.

What all share (type): in vivo
Series [1] concerns MATCH sensitive (Matricaria chamomilla). Put plainly: Greenhouse trial, PE application on resistant biotypes (test method 8). As to conditions: sensitive biotype, g of AS/ha: (A) 90, (B) 1200, (A)+(B) 90 + 1200, (C) 10. On the procedure:
(§1) In the standard design of the test, seeds of various broad-leaved weed and weed grass biotypes (origins) were sown in a 8-13 cm diameter pot filled with natural soil of a standard field soil (loamy silt; non-sterile) and covered with a covering soil layer of about 1 cm. The pots were then cultivated in a greenhouse (12-16 h of light, temperature day 20-22° C., night 15-18° C.) until the time of application. The pots were treated on a laboratory track sprayer with spray liquors comprising the compositions according to the invention, mixtures of the prior art or components used individually. Application of the active compounds or active compound combinations formulated as WG, WP, EC or otherwise was carried out at the appropriate growth stages of the plants. The application rate for the spray application was 100-600 l of water/ha. After the treatment, the plants were returned to the greenhouses.
(§2) About 3 weeks after the application, the soil action or/and foliar action was assessed visually according to a scale of 0-100% in comparison to an untreated comparative group: 0%=no noticeable effect compared to the untreated comparative group; 100%=full effect compared to the untreated comparative group.
(§3) (notes: the term “seeds” also includes vegetative propagation forms such as, for example, rhizome pieces; abbreviations used: h light=hours of illumination, g of AS/ha=gram of active substance per hectare, l/ha=liter per hectare, S=sensitive, R=resistant) • 1. Pre-emergence action against weeds: seeds of various broad-leaved weed and weed grass biotypes (origins) were sown in a 8-13 cm diameter pot filled with natural soil of a standard field soil (loamy silt; non-sterile) and covered with a covering soil layer of about 1 cm. The pots were then cultivated in a greenhouse (12-16 h of light, temperature day 20-22° C., night 15-18° C.) until the time of application. The pots were treated at the BBCH stage 00-10 of the seeds/plants on a laboratory track sprayer with spray liquors comprising the compositions according to the invention, mixtures or components used individually, as WG, WP, EC or other formulations. The application rate for the spray application was 100-600 l of water/ha. After the treatment, the plants were returned to the greenhouses and, when required, treated with fertilizer and watered. • 2. Post-emergence action against weeds: seeds of various broad-leaved weed and weed grass biotypes (origins) were sown in a 8-13 cm diameter pot filled with natural soil of a standard field soil (loamy silt; non-sterile) and covered with a covering soil layer of about 1 cm. The pots were then cultivated in a greenhouse (12-16 h of light, temperature day 20-22° C., night 15-18° C.) until the time of application. The pots were treated at various BBCH stages between 11-25 of the seeds/plants, i.e. generally between two to three weeks after the start of the cultivation, on a laboratory track sprayer with spray liquors comprising the compositions according to the invention, mixtures or components used individually, as WG, WP, EC or other formulations. The application rate for the spray application was 100-600 l of water/ha. After the treatment, the plants were returned to the greenhouses and, when required, treated with fertilizer and watered. • 3. Selective pre-emergence action: seeds of various crop species (origins) were sown in a 8-13 cm diameter pot filled with natural soil of a standard field soil (loamy silt; non-sterile) and covered with a covering soil layer of about 1 cm. The pots were then cultivated in a greenhouse (12-16 h of light, temperature day 20-22° C., night 15-18° C.) until the time of application. The pots were treated at the BBCH stage 00-10 of the seeds/plants on a laboratory track sprayer with spray liquors comprising the compositions according to the invention, mixtures or components used individually, as WG, WP, EC or other formulations. The application rate for the spray application was 100-600 l of water/ha. […]

Series [2] has as its system ALOMY resistant (Alopecurus myosuroides). The series is described as above. As to conditions: resistant biotype, g of AS/ha: (A) 90, (B) 1200, (A)+(B) 90 + 1200. The protocol:
as §1, §2, §3

Series [3] deals with MATCH resistant (Matricaria chamomilla). The description is as above. As to conditions: resistant biotype, g of AS/ha: (A) 90, (B) 1200, (A)+(B) 90 + 1200, (C) 10. The protocol:
as §1, §2, §3

Series [4] has as its system ALOMY sensitive (Alopecurus myosuroides). The description is as above. To be noted: sensitive biotype, g of AS/ha: (A) 90, (B) 1200, (A)+(B) 90 + 1200. The protocol:
as §1, §2, §3

For series [5], the system named is STEME = Stellaria media. Put plainly: Greenhouse trial, PE application at different sowing depths (test method 9). As to conditions: g of AS/ha: (A) 120, (B) 1200, (A)+(B) 120 + 1200. On the procedure:
as §1, §2, §3

Series [6] concerns LOLPE = Lolium perenne. Described as above. To be noted: g of AS/ha: (A) 120, (B) 1200, (A)+(B) 120 + 1200. The protocol: as §1, §2, §3
For series [7], the system named is TRZAW = Triticum aestivum, winter wheat. The description is as above. As to conditions: g of AS/ha: (A) 120, (B) 1200, (A)+(B) 120 + 1200. On the procedure:
as §1, §2, §3

In series [8] the test system is HORVW = Hordeum vulgare, winter barley. Described as above. As to conditions: g of AS/ha: (A) 120, (B) 1200, (A)+(B) 120 + 1200. The protocol:
as §1, §2, §3

For series [9], the system named is STEME = Stellaria media. The series can be described thus: Greenhouse trial, post-emergence (PO) action against weeds (test method 2). As to conditions: PO application; g of AS/ha: (A) 120, (B) 1200, (A)+(B) 120 + 1200; about 3 weeks after application. The protocol:
as §1, §2, §3

Series [10] deals with VIOAR = Viola arvensis. The description is as above. To be noted: PO application; g of AS/ha: (A) 120, (B) 1200, (A)+(B) 120 + 1200; about 3 weeks after application. The protocol:
as §1, §2, §3

Series [11] concerns LOLPE = Lolium perenne. The series is described as above. To be noted: PO application; g of AS/ha: (A) 120, (B) 1200, (A)+(B) 120 + 1200; about 3 weeks after application. On the procedure: as §1, §2, §3
Series [12] relates to MATCH = Matricaria chamomilla. The series can be described thus: Greenhouse trial, pre-emergence (PE) action against weeds (test method 1). To be noted: PE application; g of AS/ha: (A) 90, (B) 1200, (A)+(B) 90 + 1200. The protocol:
as §1, §2
(§4) (notes: the term “seeds” also includes vegetative propagation forms such as, for example, rhizome pieces; abbreviations used: h light=hours of illumination, g of AS/ha=gram of active substance per hectare, l/ha=liter per hectare, S=sensitive, R=resistant) • 1. Pre-emergence action against weeds: seeds of various broad-leaved weed and weed grass biotypes (origins) were sown in a 8-13 cm diameter pot filled with natural soil of a standard field soil (loamy silt; non-sterile) and covered with a covering soil layer of about 1 cm. The pots were then cultivated in a greenhouse (12-16 h of light, temperature day 20-22° C., night 15-18° C.) until the time of application. The pots were treated at the BBCH stage 00-10 of the seeds/plants on a laboratory track sprayer with spray liquors comprising the compositions according to the invention, mixtures or components used individually, as WG, WP, EC or other formulations. The application rate for the spray application was 100-600 l of water/ha. After the treatment, the plants were returned to the greenhouses and, when required, treated with fertilizer and watered. • 2. Post-emergence action against weeds: seeds of various broad-leaved weed and weed grass biotypes (origins) were sown in a 8-13 cm diameter pot filled with natural soil of a standard field soil (loamy silt; non-sterile) and covered with a covering soil layer of about 1 cm. The pots were then cultivated in a greenhouse (12-16 h of light, temperature day 20-22° C., night 15-18° C.) until the time of application. […]

For series [13], the system named is AVEFA = Avena fatua. The description is as above. As to conditions: PE application; g of AS/ha: (A) 90, (B) 1200, (A)+(B) 90 + 1200. On the procedure: as §1, §2, §4
Series [14] concerns MATCH = Matricaria chamomilla. Put plainly: Greenhouse trial, PE application with different irrigation variations (test method 6). To be noted: g of AS/ha: (A) 120, (B) 1200, (A)+(B) 120 + 1200. On the procedure: as §1, §2, §3
In series [15] the test system is TRZAW = Triticum aestivum, winter wheat. The description is as above. To be noted: g of AS/ha: (A) 120, (B) 1200, (A)+(B) 120 + 1200. The protocol:
as §1, §2, §3

Series [16] has as its system AVEFA = Avena fatua. Described as above. As to conditions: g of AS/ha: (A) 120, (B) 1200, (A)+(B) 120 + 1200. On the procedure: as §1, §2, §3

Consider `CCC(CC)Nc1c([N+](=O)[O-])cc(C)c(C)c1[N+](=O)[O-]` [(B) pendimethalin, N-(1-ethylpropyl)-3,4-dimethyl-2,6-dinitrobenzenamine], for which the “activity MATCH sensitive (visual assessment, scale 0-100% vs untreated)” value in series [1] is 10%. Moreover, the “activity ALOMY resistant (visual assessment, scale 0-100% vs untreated)” value in series [2] was 40%. In series [3], the “activity MATCH resistant (visual assessment, scale 0-100% vs untreated)” value was determined as 10%. For the same compound, in [4], the “activity ALOMY sensitive (visual assessment, scale 0-100% vs untreated)” value is given as 30%. Moreover, the “activity STEME, sowing depth 5 mm (visual assessment, scale 0-100% vs untreated)” value in [5] (sowing depth 5 mm) came to 50%. The “activity STEME, sowing depth 20 mm (visual assessment, scale 0-100% vs untreated)” value in [5] (sowing depth 20 mm) is on record as 70%. For the same compound, in series [6] (sowing depth 5 mm), the “activity LOLPE, sowing depth 5 mm (visual assessment, scale 0-100% vs untreated)” value came out at 30%. Further, the “activity LOLPE, sowing depth 20 mm (visual assessment, scale 0-100% vs untreated)” value in [6] (sowing depth 20 mm) stood at 10%. Besides, the “activity on crop plant TRZAW, sowing depth 5 mm (visual assessment, scale 0-100% vs untreated)” value in series [7] (sowing depth 5 mm) is listed as 45%. The “activity on crop plant TRZAW, sowing depth 20 mm (visual assessment, scale 0-100% vs untreated)” value in series [7] (sowing depth 20 mm) came to 10%. Besides, in series [8] (sowing depth 5 mm), the “activity on crop plant HORVW, sowing depth 5 mm (visual assessment, scale 0-100% vs untreated)” value is 25%. In addition, in series [8] (sowing depth 20 mm), the “activity on crop plant HORVW, sowing depth 20 mm (visual assessment, scale 0-100% vs untreated)” value is on record as 0%. For the same compound, the “activity STEME (visual assessment, scale 0-100% vs untreated)” value in [9] was determined as 30%. The “activity VIOAR (visual assessment, scale 0-100% vs untreated)” value in [10] is listed as 30%. For the same compound, the “activity LOLPE (visual assessment, scale 0-100% vs untreated)” value in [11] was 0%. Besides, the figures for the “activity MATCH (visual assessment, scale 0-100% vs untreated)” value in series [12], in [14] (irrigation from above) and in [14] (irrigation from below) were 18%, 30% and 18%, respectively. In addition, the “activity AVEFA (visual assessment, scale 0-100% vs untreated)” value amounted to 88% in [13], 5% in series [16] (irrigation from above) and 10% in series [16] (irrigation from below). Also, the “activity on crop plant TRZAW (visual assessment, scale 0-100% vs untreated)” value is 20% in series [15] (irrigation from above) and 5% in series [15] (irrigation from below).
